# Experimental data published in paper PMC7822063, “Analogues of 2′-hydroxychalcone with modified C4-substituents as the inhibitors against human acetylcholinesterase” (Journal of Enzyme Inhibition and Medicinal Chemistry, 2020).
# Experiments:
# human recombinant AChE = human recombinant AChE (Homo sapiens, UniProt P22303); test: biochemical; conditions: for inhibition at 10 µM / IC50: mean of triplicate; for Selectivity index: IC50 (BuChE)/IC50 (AChE)
# Description: To determine the inhibitory activity of the target compounds towards cholinesterases, the AChE and BuChE inhibition assays were performed in 96 well plates by the method of Ellman with slight modifications. […] Then, the mixture was incubated for 20 min at 37 °C. Subsequently, the reaction was initiated by addition of 50 μL (0.120 mM) of the substrate, acetylthiocholine (ATC) iodide or butyrylthiocholine (BTC) iodide (depending on the enzyme). […] Each assay was performed in triplicate. The percentage of inhibition was calculated using the following expression: (E–S)/E ×100 where E is the activity of the enzyme without test compound and S is the activity of the enzyme with the test compound. IC50 values were obtained from concentration-inhibition experiments by nonlinear regression analysis using PRISM® v5.0 (GraphPad Inc., San Diego, CA).
# The designed 2′-hydroxychalcone derivatives were evaluated for their in vitro inhibitory activities against human recombinant AChE according to Ellman’s colorimetric assay method.
# equine BuChE = equine BuChE (Equus caballus, UniProt P81908); test: biochemical; type: biochemical; conditions: mean of triplicate
# Chain of equine BuChE (P81908 whole entry): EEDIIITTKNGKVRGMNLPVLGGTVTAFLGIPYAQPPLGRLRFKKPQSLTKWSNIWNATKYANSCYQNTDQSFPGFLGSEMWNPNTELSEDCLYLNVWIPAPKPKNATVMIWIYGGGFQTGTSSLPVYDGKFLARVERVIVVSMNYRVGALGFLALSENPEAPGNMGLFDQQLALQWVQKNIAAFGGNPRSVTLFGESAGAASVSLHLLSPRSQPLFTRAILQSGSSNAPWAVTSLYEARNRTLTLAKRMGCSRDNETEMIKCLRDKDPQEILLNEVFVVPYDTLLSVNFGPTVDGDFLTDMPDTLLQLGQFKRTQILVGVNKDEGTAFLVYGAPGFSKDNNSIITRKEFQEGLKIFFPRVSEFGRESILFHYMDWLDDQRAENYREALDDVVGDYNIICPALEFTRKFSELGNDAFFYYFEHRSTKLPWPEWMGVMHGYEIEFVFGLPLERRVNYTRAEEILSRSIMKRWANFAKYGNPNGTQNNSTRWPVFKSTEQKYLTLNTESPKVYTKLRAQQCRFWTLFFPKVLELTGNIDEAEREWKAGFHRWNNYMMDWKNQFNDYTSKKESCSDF
# Chain of human recombinant AChE (P22303 32-614): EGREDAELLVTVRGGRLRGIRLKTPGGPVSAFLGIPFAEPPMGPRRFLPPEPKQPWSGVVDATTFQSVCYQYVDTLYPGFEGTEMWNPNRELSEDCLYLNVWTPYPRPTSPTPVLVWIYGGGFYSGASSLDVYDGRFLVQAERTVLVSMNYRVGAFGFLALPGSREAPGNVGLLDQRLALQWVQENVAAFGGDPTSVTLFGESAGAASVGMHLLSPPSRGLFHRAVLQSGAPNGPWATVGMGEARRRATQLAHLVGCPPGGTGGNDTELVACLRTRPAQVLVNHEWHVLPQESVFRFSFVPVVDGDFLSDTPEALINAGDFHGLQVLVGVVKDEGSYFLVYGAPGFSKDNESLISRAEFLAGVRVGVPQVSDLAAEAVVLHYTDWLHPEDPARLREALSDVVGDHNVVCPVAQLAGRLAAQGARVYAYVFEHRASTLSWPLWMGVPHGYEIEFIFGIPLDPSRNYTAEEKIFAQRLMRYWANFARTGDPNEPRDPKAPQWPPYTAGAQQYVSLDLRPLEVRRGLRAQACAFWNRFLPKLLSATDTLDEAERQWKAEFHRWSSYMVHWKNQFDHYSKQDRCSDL
SMILES,inhibition at 10 µM (human recombinant AChE) [%],Selectivity index (human recombinant AChE),IC50 (human recombinant AChE) [µM],IC50 (equine BuChE) [µM],Equine BuChE IC50 (equine BuChE)
"CCN(CC)C(=O)Cc1ccc(/C=C/C(=O)c2cc(OC)c(OC)cc2O)cc1 [Compound 4b, (E)-N,N-diethyl-2-(4-(3-(2-hydroxy-4,5-dimethoxyphenyl)-3-oxoprop-1-en-1-yl)phenyl)acetamide]",58.5,,,,
"COc1cc(O)c(C(=O)/C=C/c2ccc(OCCN3CCCCC3)cc2)c(OC)c1 [Compound 8e, (E)-1-(2-hydroxy-4,6-dimethoxyphenyl)-3-(4-(2-(piperidin-1-yl)ethoxy)phenyl)prop-2-en-1-one]",83.6,4.0,4.6 ± 0.9,18.3 ± 8,
"COc1cc(O)c(C(=O)/C=C/c2ccc(CC(=O)O)cc2)c(OC)c1 [Compound 4h, (E)-2-(4-(3-(2-hydroxy-4,6-dimethoxyphenyl)-3-oxoprop-1-en-1-yl)phenyl)acetic acid]",15.6,,,,
"COc1cc(O)c(C(=O)/C=C/c2ccc(OCCN3CCCCC3)cc2)cc1OC [Compound 8c, (E)-1-(2-hydroxy-4,5-dimethoxyphenyl)-3-(4-(2-(piperidin-1-yl)ethoxy)phenyl)prop-2-en-1-one]",52.5,,,,
"O=C(O)Cc1ccc(/C=C/C(=O)c2ccccc2O)cc1 [Compound 4f, (E)-2-(4-(3-(2-hydroxyphenyl)-3-oxoprop-1-en-1-yl)phenyl)acetic acid]",10.7,,,,
"COc1cc(O)c(C(=O)/C=C/c2ccc(OCCN3CCCC3)cc2)c(OC)c1 [Compound 8f, (E)-1-(2-hydroxy-4,6-dimethoxyphenyl)-3-(4-(2-(pyrrolidin-1-yl)ethoxy)phenyl)prop-2-en-1-one]",81.4,1.7,18.5 ± 3.8,31.3 ± 8.2,
"COc1cc(O)c(C(=O)/C=C/c2ccc(OCCN3CCCC3)cc2)cc1OC [Compound 8d, (E)-1-(2-hydroxy-4,5-dimethoxyphenyl)-3-(4-(2-(pyrrolidin-1-yl)ethoxy)phenyl)prop-2-en-1-one]",80.6,5.7,15.9 ± 1.8,89.9 ± 12,
"CCN(CC)C(=O)Cc1ccc(/C=C/C(=O)c2c(O)cc(OC)cc2OC)cc1 [Compound 4c, (E)-N,N-diethyl-2-(4-(3-(2-hydroxy-4,6-dimethoxyphenyl)-3-oxoprop-1-en-1-yl)phenyl)acetamide]",87.5,>30,3.3 ± 1.3,> 100,
"COc1ccc(O)c(C(=O)/C=C/c2ccc(CC(=O)O)cc2)c1 [Compound 4g, (E)-2-(4-(3-(2-hydroxy-5-methoxyphenyl)-3-oxoprop-1-en-1-yl)phenyl)acetic acid]",27,,,,
"COc1ccc(C(=O)/C=C/c2ccc(CC(=O)N3CCCC3)cc2)c(O)c1 [Compound 4d, (E)-1-(2-hydroxy-4-methoxyphenyl)-3-(4-(2-oxo-2-(pyrrolidin-1-yl)ethyl)phenyl)prop-2-en-1-one]",30.8,,,,
"CCN(CC)C(=O)Cc1ccc(/C=C/C(=O)c2ccc(OC)cc2O)cc1 [Compound 4a, (E)-N,N-diethyl-2-(4-(3-(2-hydroxy-4-methoxyphenyl)-3-oxoprop-1-en-1yl)phenyl)acetamide]",67.2,,,,
"COc1ccc(C(=O)/C=C/c2ccc(OCCN3CCCC3)cc2)c(O)c1 [Compound 8b, (E)-1-(2-hydroxy-4-methoxyphenyl)-3-(4-(2-(pyrrolidin-1-yl)ethoxy)phenyl)prop-2-en-1-one]",83,5.1,12.8 ± 4.8,65.6 ± 14.8,
"COc1cc(O)c(C(=O)/C=C/c2ccc(CC(=O)N3CCCC3)cc2)cc1OC [Compound 4e, (E)-1-(2-hydroxy-4,5-dimethoxyphenyl)-3-(4-(2-oxo-2-(pyrrolidin-1-yl)ethyl)phenyl)prop-2-en-1-one]",58.9,,,,
"COc1ccc(C(=O)/C=C/c2ccc(OCCN3CCCCC3)cc2)c(O)c1 [Compound 8a, (E)-1-(2-hydroxy-4-methoxyphenyl)-3-(4-(2-(piperidin-1-yl)ethoxy)phenyl)prop-2-en-1-one]",79.9,>24,4.2 ± 1.3,> 100,inactive
